Where two headings read alike, the source gives them in different places.
Tests used:
Format in all cases: in vivo
[1] = system: foxtail, giant (giant foxtail, Setaria faberii); assay: Test C pre-/postemergence: foxtail, giant
Summary of the method: (§1)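 Visual injury scored 0–100 (100 = complete control) against untreated controls after 13–15 greenhouse days. Surfactant-containing solvent formulations applied either to soil after sowing (loam/sand) or over 1- to 4-leaf plants, 2–18 cm tall.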

[2] = system: pigweed (Amaranthus retroflexus); assay: Test A pre-/postemergence: pigweed; conditions: for pest or weed control at 125 g/ha / pest or weed control at 500 g/ha: Amaranthus retroflexus, 240 h
Summary of the method: (§2)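 Soil medium was loam blended with sand; treatments pre- and postemergence were applied concurrently, postemergence at one- to two-leaf stage. Approximately ten days in greenhouse preceded visual comparison with untreated controls, scored 0 (no effect) to 100 (complete control).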

[3] = system: nightshade (eastern black nightshade, Solanum ptycanthum); assay: Test C pre-/postemergence: nightshade; conditions: Preemergence
Summary of the method: as §1

[4] = system: wild oat (Avena fatua); assay: Test C pre-/postemergence: wild oat
Summary of the method: as §1

[5] = system: wheat (Triticum aestivum); assay: Test A pre-/postemergence: wheat; conditions: for plant injury at 125 g/ha / plant injury at 500 g/ha: Triticum aestivum, 240 h
Summary of the method: as §2

[6] = system: pigweed (Amaranthus retroflexus); assay: Test C pre-/postemergence: pigweed
Summary of the method: as §1

[7] = system: nutsedge, yellow (yellow nutsedge, Cyperus esculentus); assay: Test C pre-/postemergence: nutsedge, yellow
Summary of the method: as §1

[8] = system: foxtail, giant (giant foxtail, Setaria faberii); assay: Test A pre-/postemergence: foxtail, giant; conditions: for pest or weed control at 125 g/ha / pest or weed control at 500 g/ha: Setaria faberi, 240 h
Summary of the method: as §2

[9] = system: soybean (Glycine max); assay: Test C pre-/postemergence: soybean
Summary of the method: as §1

[10] = system: crabgrass, large (large crabgrass, Digitaria sanguinalis); assay: Test A pre-/postemergence: crabgrass, large; conditions: for pest or weed control at 125 g/ha / pest or weed control at 500 g/ha: Digitaria sanguinalis, 240 h
Summary of the method: as §2

[11] = Postemergence, 31 g ai/ha, scale 0 to 100 (0 no effect, 100 complete control)
[12] = Postemergence, 62 g ai/ha, scale 0 to 100 (0 no effect, 100 complete control)
[13] = Postemergence, 125 g ai/ha, scale 0 to 100, 0 no effect, 100 complete control
[14] = Postemergence, 250 g ai/ha, scale 0 to 100
[15] = Preemergence, 31 g ai/ha, scale of 0 to 100, 0 is no effect, 100 is complete control
[16] = Preemergence, 62 g ai/ha, scale of 0 to 100, 0 is no effect, 100 is complete control
[17] = Preemergence, 125 g ai/ha, scale 0 to 100, 0 no effect, 100 complete control
[18] = Preemergence, 250 g ai/ha, scale 0 to 100, 0 no effect, 100 complete control
[19] = Postemergence, 125 g ai/ha, 0 to 100 scale, 0 is no effect, 100 is complete control
[20] = Postemergence, 500 g ai/ha, visual rating on 0 to 100 scale (0 no effect, 100 complete control), approximately ten days
[21] = Preemergence, 125 g ai/ha, 0 to 100 scale where 0 is no effect and 100 is complete control
[22] = Preemergence, 500 g ai/ha, 0 to 100 scale (0 no effect, 100 complete control)
[23] = 125 g ai/ha, scale 0 to 100, 0 no effect, 100 complete control
[24] = 250 g ai/ha, scale 0 to 100, 0 no effect, 100 complete control
[25] = Preemergence, 31 g ai/ha, scale 0 (no effect) to 100 (complete control)
[26] = Preemergence, 62 g ai/ha, scale 0 to 100, 0 no effect, 100 complete control
[27] = Postemergence, 250 g ai/ha, scale 0 to 100 (0 no effect, 100 complete control)

Cc1nn(-c2ccc(C(F)(F)F)c(F)c2)nc1Oc1ccnc(C(F)(F)F)c1 [Compound 148]
Plant response rating, Foxtail, Giant [1, 11]: 10 | Plant response rating, Foxtail, Giant [1, 12]: 35 | Plant response rating, Foxtail, Giant [1, 13]: 35 | Plant response rating, Foxtail, Giant [1, 14]: 75 | Plant response rating, Foxtail, Giant [1, 15]: 98 | Plant response rating, Foxtail, Giant [1, 16]: 100 | Plant response rating, Foxtail, Giant [1, 17]: 100 | Plant response rating, Foxtail, Giant [1, 18]: 100 | Plant response rating, Pigweed [2, 19]: 100 | Pigweed plant response rating [2, 20]: 100 | Plant response rating, Pigweed [2, 21]: 100 | Plant response rating, Pigweed [2, 22]: 100 | Plant response rating, Nightshade ([3]; 31 g ai/ha, scale of 0 to 100, 0 is no effect, 100 is complete control): 25 | Plant response rating, Nightshade ([3]; 62 g ai/ha, scale of 0 to 100, 0 is no effect, 100 is complete control): 60 | Plant response rating, Nightshade [3, 23]: 85 | Plant response rating, Nightshade [3, 24]: 85 | Plant response rating, Oat, Wild [4, 11]: 15 | Plant response rating, Oat, Wild [4, 12]: 45 | Plant response rating, Oat, Wild [4, 13]: 80 | Plant response rating, Oat, Wild [4, 14]: 90 | Plant response rating, Oat, Wild [4, 15]: 35 | Plant response rating, Oat, Wild [4, 16]: 85 | Plant response rating, Oat, Wild [4, 17]: 85 | Plant response rating, Oat, Wild [4, 18]: 85 | Plant response rating, Wheat [5, 19]: 20 | Wheat plant response rating [5, 20]: 40 | Plant response rating, Wheat [5, 21]: 30 | Plant response rating, Wheat [5, 22]: 50 | Plant response rating, Pigweed [6, 11]: 65 | Plant response rating, Pigweed [6, 12]: 98 | Plant response rating, Pigweed [6, 13]: 98 | Plant response rating, Pigweed [6, 14]: 98 | Plant response rating, Pigweed [6, 15]: 100 | Plant response rating, Pigweed [6, 16]: 100 | Plant response rating, Pigweed [6, 17]: 100 | Plant response rating, Pigweed [6, 18]: 100 | Plant response rating, Nutsedge, Yellow [7, 11]: 10 | Plant response rating, Nutsedge, Yellow [7, 12]: 10 | Plant response rating, Nutsedge, Yellow [7, 13]: 15 | Plant response rating, Nutsedge, Yellow [7, 14]: 15 | Plant response rating, Nutsedge, Yellow [7, 15]: 0 | Plant response rating, Nutsedge, Yellow [7, 16]: 5 | Plant response rating, Nutsedge, Yellow [7, 17]: 5 | Foxtail, Giant plant response rating [8, 19]: 80 | Foxtail, Giant plant response rating [8, 20]: 80 | Plant response rating, Foxtail, Giant [8, 21]: 100 | Plant response rating, Foxtail, Giant [8, 22]: 100 | Plant response rating, Soybean [9, 11]: 45 | Plant response rating, Soybean [9, 12]: 45 | Plant response rating, Soybean [9, 13]: 80 | Plant response rating, Soybean [9, 14]: 90 | Plant response rating, Soybean [9, 15]: 5 | Plant response rating, Soybean [9, 16]: 10 | Plant response rating, Soybean [9, 17]: 20 | Plant response rating, Soybean [9, 18]: 30 | Crabgrass, Large plant response rating [10, 19]: 80 | Crabgrass, Large plant response rating [10, 20]: 80 | Plant response rating, Crabgrass, Large [10, 21]: 100 | Plant response rating, Crabgrass, Large [10, 22]: 100

CCOc1nn(-c2ccc(F)cc2)nc1Cc1ccnc(C(F)(F)F)c1 [Compound 196, 4-[[5-ethoxy-2-(4-fluorophenyl)-2H-1,2,3-triazol-4-yl]methyl]-2-(trifluoromethyl)pyridine]
Plant response rating, Foxtail, Giant [1, 11]: 85 | Plant response rating, Foxtail, Giant [1, 12]: 85 | Plant response rating, Foxtail, Giant [1, 13]: 90 | Plant response rating, Foxtail, Giant [1, 14]: 90 | Plant response rating, Foxtail, Giant [1, 25]: 100 | Plant response rating, Foxtail, Giant [1, 26]: 100 | Plant response rating, Foxtail, Giant [1, 17]: 100 | Plant response rating, Foxtail, Giant [1, 18]: 100 | pest or weed control at 125 g/ha ([2]; post-emergence, Postemergence, 125 g ai/ha, 0 to 100 scale, 0 is no effect, 100 is complete control, read-out: Plant response rating, Pigweed): 100% | pest or weed control at 500 g/ha ([2]; post-emergence, Postemergence, 500 g ai/ha, 0 to 100 scale, 0 is no effect, 100 is complete control, read-out: Pigweed plant response rating): 100% | pest or weed control at 125 g/ha ([2]; pre-emergence, Preemergence, 125 g ai/ha, 0 to 100 scale where 0 is no effect and 100 is complete control, read-out: Plant response rating, Pigweed): 100% | pest or weed control at 500 g/ha ([2]; pre-emergence, Preemergence, 500 g ai/ha, 0 to 100 scale (0 no effect, 100 complete control), read-out: Plant response rating, Pigweed): 100% | Plant response rating, Nightshade ([3]; 31 g ai/ha, scale 0 (no effect) to 100 (complete control)): 100 | Plant response rating, Nightshade ([3]; 62 g ai/ha, scale 0 to 100, 0 no effect, 100 complete control): 100 | Plant response rating, Nightshade [3, 23]: 100 | Plant response rating, Nightshade [3, 24]: 100 | Plant response rating, Oat, Wild [4, 11]: 55 | Plant response rating, Oat, Wild [4, 12]: 85 | Plant response rating, Oat, Wild [4, 13]: 85 | Plant response rating, Oat, Wild [4, 27]: 90 | Plant response rating, Oat, Wild [4, 25]: 80 | Plant response rating, Oat, Wild [4, 26]: 90 | Plant response rating, Oat, Wild [4, 17]: 90 | Plant response rating, Oat, Wild [4, 18]: 90 | plant injury at 125 g/ha ([5]; post-emergence, Postemergence, 125 g ai/ha, 0 to 100 scale, 0 is no effect, 100 is complete control, read-out: Plant response rating, Wheat): 50% | plant injury at 500 g/ha ([5]; post-emergence, Postemergence, 500 g ai/ha, 0 to 100 scale, 0 is no effect, 100 is complete control, read-out: Wheat plant response rating): 70% | plant injury at 125 g/ha ([5]; pre-emergence, Preemergence, 125 g ai/ha, 0 to 100 scale where 0 is no effect and 100 is complete control, read-out: Plant response rating, Wheat): 50% | plant injury at 500 g/ha ([5]; pre-emergence, Preemergence, 500 g ai/ha, 0 to 100 scale (0 no effect, 100 complete control), read-out: Plant response rating, Wheat): 70% | Plant response rating, Pigweed [6, 11]: 98 | Plant response rating, Pigweed [6, 12]: 98 | Plant response rating, Pigweed [6, 13]: 98 | Plant response rating, Pigweed [6, 27]: 98 | Plant response rating, Pigweed [6, 25]: 95 | Plant response rating, Pigweed [6, 26]: 98 | Plant response rating, Pigweed [6, 17]: 98 | Plant response rating, Pigweed [6, 18]: 98 | Plant response rating, Nutsedge, Yellow [7, 11]: 10 | Plant response rating, Nutsedge, Yellow [7, 12]: 10 | Plant response rating, Nutsedge, Yellow [7, 13]: 15 | Plant response rating, Nutsedge, Yellow [7, 27]: 20 | Plant response rating, Nutsedge, Yellow [7, 25]: 0 | Plant response rating, Nutsedge, Yellow [7, 26]: 0 | Plant response rating, Nutsedge, Yellow [7, 17]: 5 | Plant response rating, Nutsedge, Yellow [7, 18]: 10 | pest or weed control at 125 g/ha ([8]; post-emergence, Postemergence, 125 g ai/ha, 0 to 100 scale, 0 is no effect, 100 is complete control, read-out: Plant response rating, Foxtail, Giant): 90% | pest or weed control at 500 g/ha ([8]; post-emergence, Postemergence, 500 g ai/ha, 0 to 100 scale, 0 is no effect, 100 is complete control, read-out: Foxtail, Giant plant response rating): 90% | pest or weed control at 125 g/ha ([8]; pre-emergence, Preemergence, 125 g ai/ha, 0 to 100 scale where 0 is no effect and 100 is complete control, read-out: Plant response rating, Foxtail, Giant): 100% | pest or weed control at 500 g/ha ([8]; pre-emergence, Preemergence, 500 g ai/ha, 0 to 100 scale (0 no effect, 100 complete control), read-out: Plant response rating, Foxtail, Giant): 100% | Plant response rating, Soybean [9, 11]: 45 | Plant response rating, Soybean [9, 12]: 50 | Plant response rating, Soybean [9, 13]: 65 | Plant response rating, Soybean [9, 27]: 70 | Plant response rating, Soybean [9, 25]: 10 | Plant response rating, Soybean [9, 26]: 15 | Plant response rating, Soybean [9, 17]: 30 | Plant response rating, Soybean [9, 18]: 35 | pest or weed control at 125 g/ha ([10]; post-emergence, Postemergence, 125 g ai/ha, 0 to 100 scale, 0 is no effect, 100 is complete control, read-out: Plant response rating, Crabgrass, Large): 90% | pest or weed control at 500 g/ha ([10]; post-emergence, Postemergence, 500 g ai/ha, 0 to 100 scale, 0 is no effect, 100 is complete control, read-out: Crabgrass, Large plant response rating): 90% | pest or weed control at 125 g/ha ([10]; pre-emergence, Preemergence, 125 g ai/ha, 0 to 100 scale where 0 is no effect and 100 is complete control, read-out: Plant response rating, Crabgrass, Large): 100% | pest or weed control at 500 g/ha ([10]; pre-emergence, Preemergence, 500 g ai/ha, 0 to 100 scale (0 no effect, 100 complete control), read-out: Plant response rating, Crabgrass, Large): 100%
